# Columns and labels:
# Experiment in all cases: relative viability (nuclei count vs DMSO), 5 days (fraction); higher = more cells survive
# [1] = compound: CC1CC(=O)N(C2=CN=C(N=C2N1C3CCCC3)NC4=C(C=C(C=C4)C(=O)NC5CCN(CC5)C)OC)C [NPK76-II-72-1] + Cc1cc(Nc2cc(N3CCN(C)CC3)nc(Sc3ccc(NC(=O)C4CC4)cc3)n2)n[nH]1 [Tozasertib] (partner 0.1 µM)
# How it was run: (§1)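 After 5 days of treatment, lung cancer cells in 1536-well plates were fixed and stained in a single step (final 0.05% Triton X-100, 1% formaldehyde, 1 ug/ml Hoechst) and their nuclei counted on 4× images. Treatment had been applied by pin tool the day after seeding as one drug alone or as a fixed anchor-drug dose with five library-drug doses (not always all listed) in √10 steps. Relative viability is the nuclei count of treated wells divided by that of vehicle wells, and values are medians of duplicate plates.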
# BI-2536 + OSI-027 = compound: CC[C@@H]1C(=O)N(C)c2cnc(Nc3ccc(C(=O)NC4CCN(C)CC4)cc3OC)nc2N1C1CCCC1 [BI-2536] + COc1cccc2cc(-c3nc([C@H]4CC[C@H](C(=O)O)CC4)n4ncnc(N)c34)[nH]c12 [OSI-027] (partner 0.5 µM)
# How it was run: as §1
# BI-2536 + Dasatinib = compound: CC[C@@H]1C(=O)N(C)c2cnc(Nc3ccc(C(=O)NC4CCN(C)CC4)cc3OC)nc2N1C1CCCC1 [BI-2536] + Cc1nc(Nc2ncc(C(=O)Nc3c(C)cccc3Cl)s2)cc(N2CCN(CCO)CC2)n1 [Dasatinib] (partner 0.075 µM)
# How it was run: as §1
# BI-2536 + Pemetrexed = compound: CC[C@@H]1C(=O)N(C)c2cnc(Nc3ccc(C(=O)NC4CCN(C)CC4)cc3OC)nc2N1C1CCCC1 [BI-2536] + Nc1nc2[nH]cc(CCc3ccc(C(=O)N[C@@H](CCC(=O)O)C(=O)O)cc3)c2c(=O)[nH]1 [Pemetrexed] (partner 0.2 µM)
# How it was run: as §1
cell line,measurement,setting,value
UMC-11,relative viability,[1]; first compound 0.01 µM,0.197
same,relative viability,[1]; first compound 0.03162 µM,0.186
same,relative viability,[1]; first compound 0.1 µM,0.197
same,relative viability,[1]; first compound 1 µM,0.205
same,relative viability,BI-2536 + OSI-027; first compound 0.01 µM,0.5
same,relative viability,BI-2536 + OSI-027; first compound 0.03162 µM,0.27
same,relative viability,BI-2536 + OSI-027; first compound 0.1 µM,0.138
same,relative viability,BI-2536 + OSI-027; first compound 0.3162 µM,0.192
same,relative viability,BI-2536 + OSI-027; first compound 1 µM,0.158
same,relative viability,BI-2536 + Dasatinib; first compound 0.01 µM,0.432
same,relative viability,BI-2536 + Dasatinib; first compound 0.03162 µM,0.243
same,relative viability,BI-2536 + Dasatinib; first compound 0.1 µM,0.141
same,relative viability,BI-2536 + Dasatinib; first compound 0.3162 µM,0.183
same,relative viability,BI-2536 + Dasatinib; first compound 1 µM,0.158
same,relative viability,BI-2536 + Pemetrexed; first compound 0.01 µM,0.8
same,relative viability,BI-2536 + Pemetrexed; first compound 0.03162 µM,0.57
same,relative viability,BI-2536 + Pemetrexed; first compound 0.1 µM,0.242
same,relative viability,BI-2536 + Pemetrexed; first compound 0.3162 µM,0.194
same,relative viability,BI-2536 + Pemetrexed; first compound 1 µM,0.184

# Reference: the supplement of paper PMC10307832
